{
  "source": "patent US20230183333A1",
  "about": "“COMPOSITION FOR THE TREATMENT OF PHILADELPHIA CHROMOSOME-POSITIVE ACUTE LYMPHOBLASTIC LEUKEMIA” (priority 2020, published 2023)",
  "molecules": {"B1": {"name": "mouse IL7R on bone marrow-derived pre-B cells (WT or BCR-ABL1 transformed) (receptor, UniProt P16872 21-459, looked up)", "chain": "ESGNAQDGDLEDADADDHSFWCHSQLEVDGSQHLLTCAFNDSDINTANLEFQICGALLRVKCLTLNKLQDIYFIKTSEFLLIGSSNICVKLGQKNLTCKNMAINTIVKAEAPSDLKVVYRKEANDFLVTFNAPHLKKKYLKKVKHDVAYRPARGESNWTHVSLFHTRTTIPQRKLRPKAMYEIKVRSIPHNDYFKGFWSEWSPSSTFETPEPKNQGGWDPVLPSVTILSLFSVFLLVILAHVLWKKRIKPVVWPSLPDHKKTLEQLCKKPKTSLNVSFNPESFLDCQIHEVKGVEARDEVESFLPNDLPAQPEELETQGHRAAVHSANRSPETSVSPPETVRRESPLRCLARNLSTCNAPPLLSSRSPDYRDGDRNRPPVYQDLLPNSGNTNVPVPVPQPLPFQSGILIPVSQRQPISTSSVLNQEEAYVTMSSFYQNK", "notes": "whole, on cells; also called IL7Rα"}},
  "key": {"[1]": {"tested_on": "BCR-ABL1 transformed cells", "experiment": "Imatinib-induced cell death in the presence of cytokine/chemokine (viability, cell cycle)", "assay_type": "cell-based, mouse", "settings": "added together with 1 μM imatinib", "method": "BM cells from WT (n=7, female), IL7Rα^Δ (n=7, female), IL7Rα^fl/fl (n=7, female), CXCR4^fl/fl (n=3, female) and FoxO1^fl/fl (n=3, female) mice were collected and retrovirally transformed with either an empty pMIG vector or with a pMIG vector expressing BCR-ABL1. Unless mentioned otherwise, cells were cultured for 3 to 7 days in Iscove's medium (Biochrom AG) containing 10% heat-inactivated FCS (Sigma-Aldrich), 2 mM 1-glutamine, 100 U/ml penicillin (Gibco), 100 U/ml streptomycin (Gibco), and 50 μM 2-mercaptoethanol. The medium was supplemented in excess with the supernatant of J558L plasmacytoma cells stably transfected with a vector encoding murine IL7. Transformed cells were selected by IL7 withdrawal and kept in optimum conditions^38. Retroviral vectors containing either constitutively active STAT5 (STAT5-CA)^34 or an empty vector were used to transduce BCR-ABL1-transformed cells and sorted cells were used then for western blot or flow cytometry analysis. 1-2μM 4-hydroxy tamoxifen (Tam) (Sigma-Aldrich) was used to induce deletion on plasmids expressing tamoxifen-inducible form of Cre (Cre-ER^T2)^14. All cells were tested and found free from mycoplasma.\nAntibodies for flow cytometry (CD19, IL7R, CXCR4, FoxO1 and CD11b) were purchased from (eBiosciences, BioLegend, Invitrogen or Cell Signaling). Intracellular flow cytometry staining was performed using Fix and Perm cell permeabilization kit (ADG). Cell viability was measured using Sytox® blue dead cell stain (Life Technologies). FACS Cantoll (BD Biosciences) was used for flow cytometry, and FlowJo v.10.1 was used for data analysis."}, "[2]": {"tested_on": "BCR-ABL1 transformed cells", "experiment": "CXCL12-induced Ca2+ flux", "assay_type": "cell-based, mouse", "settings": "CXCL12 100 ng/ml", "experimental": "A total of 1×10^6 cells were loaded with Indo-1 AM (Invitrogen) and used for Ca^2+ analyses^62. 100 ng/m1 of CXCL12 was used for stimulation"}, "[3]": {"tested_on": "human Ph+ ALL SUP-B15 cell line", "experiment": "IL7R and CXCR4 surface expression after imatinib in a human Ph+ ALL cell line", "assay_type": "cell-based", "settings": "5 μM imatinib, day 7, surface expression", "experimental": "68 BCR-ABL+ ALL patients were treated according to European intergroup study of post-induction treatment of Philadelphia-chromosome-positive ALL (EsPhALL) 2004 and 2010 protocols (NCT00287105) and ALL-Berlin-Frankfurt-Münster (BFM) 2000 (NCT00430118) study. Informed consent was obtained according to institutional regulations, in accordance with the Declaration of Helsinki. 697, SUP-B15, and TOM-1 cell lines were obtained from DSMZ. Ph+ ALL cells containing T3151 mutation was kindly provided by M. Miischen (Shojaee, S., et al. Nat Med 22, 379-387 (2016))."}, "[4]": {"molecular_target": "T1, mouse Jak3 in pre-B cells (mouse, UniProt Q62137 1-1100)", "T1 construct": "Detected in cells by PLA with an antibody from Cell Signaling", "T1 sequence (looked up)": "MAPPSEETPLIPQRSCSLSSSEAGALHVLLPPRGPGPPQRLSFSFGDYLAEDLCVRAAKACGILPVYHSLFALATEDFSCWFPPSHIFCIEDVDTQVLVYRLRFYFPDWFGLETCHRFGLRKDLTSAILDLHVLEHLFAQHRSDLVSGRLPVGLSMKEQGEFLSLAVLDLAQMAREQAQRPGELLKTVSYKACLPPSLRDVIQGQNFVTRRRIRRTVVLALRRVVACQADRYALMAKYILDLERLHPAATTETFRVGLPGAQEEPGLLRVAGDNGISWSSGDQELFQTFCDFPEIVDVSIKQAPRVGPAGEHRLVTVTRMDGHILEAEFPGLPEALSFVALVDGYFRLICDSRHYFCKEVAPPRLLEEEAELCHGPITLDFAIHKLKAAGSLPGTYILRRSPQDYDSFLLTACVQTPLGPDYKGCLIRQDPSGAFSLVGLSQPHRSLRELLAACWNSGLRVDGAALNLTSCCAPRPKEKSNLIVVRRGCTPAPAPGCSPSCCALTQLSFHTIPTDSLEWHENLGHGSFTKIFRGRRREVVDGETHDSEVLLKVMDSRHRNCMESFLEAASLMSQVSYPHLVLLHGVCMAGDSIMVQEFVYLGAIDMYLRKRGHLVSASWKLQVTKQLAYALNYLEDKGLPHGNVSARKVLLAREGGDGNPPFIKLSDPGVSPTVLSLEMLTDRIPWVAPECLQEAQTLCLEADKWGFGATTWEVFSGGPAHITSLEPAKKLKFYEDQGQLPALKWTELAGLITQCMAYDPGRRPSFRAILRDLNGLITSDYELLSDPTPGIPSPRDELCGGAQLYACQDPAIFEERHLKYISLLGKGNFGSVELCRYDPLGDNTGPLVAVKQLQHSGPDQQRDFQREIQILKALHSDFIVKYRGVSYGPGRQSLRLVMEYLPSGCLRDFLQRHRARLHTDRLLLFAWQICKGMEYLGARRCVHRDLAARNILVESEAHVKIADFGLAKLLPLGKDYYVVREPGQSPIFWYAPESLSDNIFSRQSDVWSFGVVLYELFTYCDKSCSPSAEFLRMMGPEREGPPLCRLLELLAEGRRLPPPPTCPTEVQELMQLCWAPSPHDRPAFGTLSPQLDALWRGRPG", "experiment": "proximity ligation assay on mouse WT and BCR-ABL1 transformed pre-B cells"}, "[5]": {"molecular_target": "T2, human interleukin 7 receptor (IL7R) on SUP-B15 Ph+ BCP-ALL cells (human, UniProt P16871 21-459)", "T2 construct": "whole, on cells; In the immunoprecipitation it comes from SUP-B15 lysate; also called IL7Rα; human IL7Rα", "T2 sequence (looked up)": "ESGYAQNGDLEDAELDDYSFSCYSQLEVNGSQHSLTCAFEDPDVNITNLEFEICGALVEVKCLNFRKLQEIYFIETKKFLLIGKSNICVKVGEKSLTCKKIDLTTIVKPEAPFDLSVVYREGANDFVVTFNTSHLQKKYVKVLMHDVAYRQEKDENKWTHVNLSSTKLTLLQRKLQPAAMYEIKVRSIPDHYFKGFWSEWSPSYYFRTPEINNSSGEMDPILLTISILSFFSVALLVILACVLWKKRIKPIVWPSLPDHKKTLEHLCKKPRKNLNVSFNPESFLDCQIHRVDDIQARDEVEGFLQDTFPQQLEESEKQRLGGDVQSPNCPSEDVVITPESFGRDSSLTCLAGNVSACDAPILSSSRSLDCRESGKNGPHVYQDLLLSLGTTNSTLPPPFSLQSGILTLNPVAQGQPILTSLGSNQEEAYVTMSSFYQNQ", "experiment": "Fab-PLA on SUP-B15 cells in comparison to Ramos cells"}, "[6]": {"molecular_target": "B1", "experiment": "proximity ligation assay on mouse pre-B cells"}, "[7]": {"molecular_target": "T1, mouse Jak3 in pre-B cells", "experiment": "proximity ligation assay on mouse BCR-ABL1 transformed pre-B cells"}},
  "data": [
    {"molecule": "c1cc(CN2CCCNCCNCCCNCC2)ccc1CN1CCCNCCNCCCNCC1", "note": "[AMD3100]", "values": [
      {"measurement": "effect on imatinib-induced cell death", "setting": "[1]", "value": "did not affect imatinib treatment"},
      {"measurement": "CXCL12-induced Ca2+ response", "setting": "[2]", "value": "prevented the Ca^2+ response"}
    ]},
    {"molecule": "Cc1ccc(NC(=O)c2ccc(CN3CCN(C)CC3)cc2)cc1Nc1nccc(-c2cccnc2)n1", "note": "[imatinib]", "values": [
      {"measurement": "expression of IL7R and CXCR4", "setting": "[3]", "value": "upregulated IL7R and CXCR4"}
    ]},
    {"molecule": "CXCL12: chemokine, the ligand for CXCR4", "values": [
      {"measurement": "effect on imatinib-induced cell death", "setting": "[1]", "value": "did not affect imatinib treatment"}
    ]},
    {"molecule": "TSLP: the ligand for CRLF2", "values": [
      {"measurement": "effect on imatinib-induced cell death", "setting": "[1]", "value": "unable to rescue BCR-ABL1 transformed cells from inhibitor-induced cell death"}
    ]},
    {"molecule": "B1", "values": [
      {"measurement": "binding result", "setting": "[4]", "value": "binds"}
    ]},
    {"molecule": "human CXCR4 on SUP-B15 cells (receptor, UniProt P61073 1-352, looked up, whole, on cells; In the immunoprecipitation it comes from SUP-B15 lysate; also called C-X-C chemokine receptor 4) MEGISIYTSDNYTEEMGSGDYDSMKEPCFREENANFNKIFLPTIYSIIFLTGIVGNGLVILVMGYQKKLRSMTDKYRLHLSVADLLFVITLPFWAVDAVANWYFGNFLCKAVHVIYTVNLYSSVLILAFISLDRYLAIVHATNSQRPRKLLAEKVVYVGVWIPALLLTIPDFIFANVSEADDRYICDRFYPNDLWVVVFQFQHIMVGLILPGIVILSCYCIIISKLSHSKGHQKRKALKTTVILILAFFACWLPYYIGISIDSFILLEIIKQGCEFENTVHKWISITEALAFFHCCLNPILYAFLGAKFKTSAQHALTSVSRGSSLKILSKGKRGGHSSVSTESESSSFHSS", "values": [
      {"measurement": "binding result", "setting": "[5]", "value": "binds"}
    ]},
    {"molecule": "mouse CXCR4 on bone marrow-derived pre-B cells (WT or BCR-ABL1 transformed) (receptor, UniProt P70658 1-359, looked up, whole, on cells) MEPISVSIYTSDNYSEEVGSGDYDSNKEPCFRDENVHFNRIFLPTIYFIIFLTGIVGNGLVILVMGYQKKLRSMTDKYRLHLSVADLLFVITLPFWAVDAMADWYFGKFLCKAVHIIYTVNLYSSVLILAFISLDRYLAIVHATNSQRPRKLLAEKAVYVGVWIPALLLTIPDFIFADVSQGDISQGDDRYICDRLYPDSLWMVVFQFQHIMVGLILPGIVILSCYCIIISKLSHSKGHQKRKALKTTVILILAFFACWLPYYVGISIDSFILLGVIKQGCDFESIVHKWISITEALAFFHCCLNPILYAFLGAKFKSSAQHALNSMSRGSSLKILSKGKRGGHSSVSTESESSSFHSS", "values": [
      {"measurement": "binding result", "setting": "[6]", "value": "binds"},
      {"measurement": "binding result", "setting": "[7]", "value": "binds"}
    ]},
    {"molecule": "IL7: cytokine that binds IL7Rα chain (protein) DCDIEGKDGKQYESVLMVSIDQLLDSMKEIGSNCLNNEFNFFKRHICDANKEGMFLFRAARKLRQFLKMNSTGDFDLHLLKVSEGTTILLNCTGQVKGRKPAALGEAQPTKSLEENKSLKEQKKLNDLCFLKRLLQEIKTCWNKILMGTKEH", "values": [
      {"measurement": "effect on imatinib-induced cell death", "setting": "[1]", "value": "counteracted imatinib-induced cell death and restored the cell cycle progression"}
    ]}
  ]
}
